Experimental data taken from US6022880A, “Substituted pyridylamino indoles” (Hoechst Marion Roussel, Inc., priority 1997, dated 2000).
Counter-ions that a name gives are not always drawn.

Legend:
[1] = system: mice (scopolamine induced memory deficit); experiment: Dark Avoidance Assay (reversal of scopolamine induced memory deficit); format: in vivo, mouse; conditions: s.c.
Description: Dark Avoidance Assay In this assay mice are tested for their ability to remember an unpleasant stimulus for a period of 24 hours. A mouse is placed in a chamber that contains a dark compartment; a strong incandescent light drives it to the dark compartment, where an electric shock is administered through metal plates on the floor. The animal is removed from the testing apparatus and tested again, 24 hours later, for the ability to remember the electric shock. If scopolamine, an anticholinergic agent that is known to cause memory impairment, is administered before an animal's initial exposure to the test chamber, the animal re-enters the dark compartment shortly after being placed in the test chamber 24 hours later. This effect of scopolamine is blocked by an active test compound, resulting in a greater interval before re-entry into the dark compartment. The results for an active compound are expressed as the percent of a group of animals in which the effect of scopolamine is blocked, as manifested by an increased interval between being placed in the test chamber and re-entering the dark compartment.

[2] = system: norepinephrine uptake, rat whole brain or hypothalamic synaptosomes; experiment: Inhibition of [3H]-Norepinephrine Uptake in Rat Whole Brain or Hypothalamic Synaptosomes; format: biochemical, rat (male Wistar); conditions: [3H]-NE 50 nM, read-out: E: Inhibition of norepinephrine uptake, IC50
Description: (E) Inhibition of [^3 H]-Norepinephrine Uptake in Rat Whole Brain or Hypothalamic Synaptosomes
This assay is used as a biochemical screen for potential antidepressants which block norepinephrine uptake.
A. Animals: Male CR Wistar rats (100-125 g).
The final desired concentration of [^3 H]-NE in the assay is 50 nM. The dilution factor is 0.8.
(§1) 5. For most assays, a 1 mM stock solution of the test compound is made up in a suitable solvent and serially diluted such that the final concentration in the assay ranges from 2×10^-8 to 2×10^-5 M. Seven concentrations are used for each assay.
(§2) Male Wistar rats are decapitated and the brain rapidly removed. Either whole brain minus cerebella or hypothalamus is weighed and homogenized in 9 volumes of ice-cold 0.32 M sucrose using a Potter-Elvejhem homogenizer. Homogenization should be done with 4-5 up and down strokes at medium speeds to minimize synaptosome lysis. The homogenate is centrifuged at 1000 g for 10 min. at 0-4° C. The supernatant (S1) is decanted and is used for uptake experiments.
(§3) Tubes are incubated at 37° C. under a 95% O2 /5% CO2 atmosphere for 5 minutes. For each assay, 3 tubes are incubated with 20 μl of vehicle at 0° C. in an ice bath. After incubation all tubes are immediately centrifuged at 4000 g for 10 minutes. The supernatant fluid is aspirated and the pellets dissolved by adding 1 ml of solubilizer (Triton X-100+50% EtOH, 1:4 v/v). The tubes are vigorously vortexed, decanted into scintillation vials, and counted in 10 ml of Liquiscint scintillation counting cocktail. Active uptake is the difference between cpm at 37° C. and 0° C. The percent inhibition at each drug concentration is the mean of three determinations. IC50 values are derived from log-probit analysis.

[3] = system: serotonin uptake, rat whole brain synaptosomes; experiment: Inhibition of [3H]-Serotonin Uptake in Rat Whole Brain Synaptosomes; format: biochemical, rat (male Wistar); conditions: [3H]-5HT 50 nM, read-out: C: Inhibition of serotonin uptake, IC50
Description: (C) Inhibition of [^3 H]-Serotonin Uptake in Rat Whole Brain Synaptosomes
(§4) A. Animals: Male CR Wistar Rats (100-125 g).
The final desired concentration of ^3 H-5HT in the assay is 50 nM. The dilution factor is 0.8.
5. For most assays, a 1 mM solution of the test compound is made up in suitable solvent and serially diluted such that the final concentration in the assay ranges from 2×10^-8 to 2×10^-5 M. Seven concentrations are used for each assay.
as §2, with “Whole” for “Either whole”, “cerebella” for “cerebella or hypothalamus”
as §3, with “(Tritor.” for “(Triton”

[4] = system: dopamine uptake, rat striatal synaptosomes; experiment: Inhibition of 3H-Dopamine Uptake in Rat Striatal Synaptosomes; format: biochemical, rat (male Wistar); conditions: 3H-DA 50 nM, read-out: D: Inhibition of dopamine uptake, IC50
Description: (D) Inhibition of ^3 H-Dopamine Uptake in Rat Striatal Synaptosomes
This assay is used to show differential drug effects on dopamine uptake versus norepinephrine uptake and to identify therapeutic agents for diseases where the potentiation of dopaminergic activity may be helpful (e.g. Parkinson's Disease).
as §4
The final desired concentration of ^3 H-DA in the assay is 50 nM. The dilution factor is 0.9. Therefore, the KHBB is made up to contain 55.5 nM [^3 H]-5DA.
as §1, with “assay. Higher or lower concentrations may be used depending on the potency of the compound.” for “assay.”
as §2, with “Corpora striata are rapidly removed,” for “Either whole brain minus cerebella or hypothalamus is”
as §3

MAO-A = biological target: T1, MAO-A (Rattus norvegicus, UniProt P21396); experiment: biochemical; set-up: species or system rat (male Wistar, whole brain minus cerebellum); conditions: substrate [3H]-5HT 200 μM; read-out: Inhibitory Concentration - IC50 MAO-A
T1 sequence (P21396 1-526): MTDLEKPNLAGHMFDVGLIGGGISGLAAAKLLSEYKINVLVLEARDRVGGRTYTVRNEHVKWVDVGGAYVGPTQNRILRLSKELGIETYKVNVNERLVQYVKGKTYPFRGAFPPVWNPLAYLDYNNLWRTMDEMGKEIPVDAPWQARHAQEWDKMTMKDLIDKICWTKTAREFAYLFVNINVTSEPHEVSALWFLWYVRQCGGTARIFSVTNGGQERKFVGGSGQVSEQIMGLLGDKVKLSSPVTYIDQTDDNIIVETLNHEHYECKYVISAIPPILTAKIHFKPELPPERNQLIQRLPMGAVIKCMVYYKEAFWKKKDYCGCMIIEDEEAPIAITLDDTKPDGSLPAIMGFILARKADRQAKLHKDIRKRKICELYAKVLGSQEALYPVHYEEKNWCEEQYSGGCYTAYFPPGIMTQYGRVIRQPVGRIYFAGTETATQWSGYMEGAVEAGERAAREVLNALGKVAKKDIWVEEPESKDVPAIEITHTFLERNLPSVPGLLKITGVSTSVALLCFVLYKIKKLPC
Description: (§5) Inhibition of Type A and Type B Monoamine Oxidase Activity in Rat Brain Synaptosomes
To determine the selective inhibition of the two forms of monoamine oxidase (MAO).
Although various methods for measuring MAO activity are available, the described method involves the extraction of the radiolabeled deaminated metabolites of [^3 H]-5HT or [^14 C]-β-phenethylamine. This procedure allows MAO-A and MAO-B activities to be measured either simultaneously or individually (3).
Serotonin creatinine SO4 (5HT) is obtained from Sigma Chemical Company. A 5 mM stock solution is made up in 0.01 N HCl. This is used to dilute the specific activity of the [^3 H]-5HT.
[^3 H]-5-Hydroxytryptamine creatinine SO4 (20-30 Ci/mmol) is obtained from New England Nuclear.
Add 12 μl of [^3 H]-5HT to 2 ml of the 5 mM 5HT solution. (Final amine concentration in the assay is 200 μM: see below.)
(§6) Equal amounts of MAO-A (5HT) and MAO-B (PEA) substrates are combined for simultaneously testing both MAO types, i.e. mixed stock solution of 2.5 mM 5HT and 2.5 mM PEA, 40 μl of this mixed solution gives a 200 μM final concentration of each amine in the assay. When testing only one MAO type, the individual 5 mM stock solutions must be diluted 1:1 with distilled water prior to adding 40 μl to the incubation mixture; i.e., same 200 μM final amine concentration.
(§7) Male Wistar rats weighing 150-250 grams were sacrificed and the brains rapidly removed. Whole brain minus cerebellum was homogenized in 30 volumes of ice-cold, phosphate-buffered 0.25 M sucrose, using a Potter-Elvejhem homogenizer. The homogenate was centrifuged at 1000 g for 10 minutes and the supernatant (S1) decanted and recentrifuged at 18,000 g for 20 minutes. The resulting pellet (p2) was resuspended in fresh 0.25 M sucrose and served as the tissue source for mitochondrial MAO.
(§8) Tubes are preincubated for 15 minutes at 37° C. and the assay is started by adding 40 μl of combined substrate ([^3 H]-5HT and [^14 C]-PEA) at 15 second intervals. The tubes are incubated for 30 minutes at 37° C. and the reaction stopped by the addition of 0.3 ml 2N HCl. Tissue blank values are determined by adding the acid before the radioactive substrate. The oxidative products of the reaction are extracted with ethyl acetate/toluene (1:1). 5 ml of this mixture is added to the tubes. The resultant mixture is vortexed for 15 seconds to extract the deaminated metabolites into the organic phase and the latter is allowed to separate from the aqueous phase. The tubes are placed in acetone/dry ice bath to freeze the aqueous layer. When this layer is frozen, the top organic layer is poured into a scintillation vial. 10 ml of Liquiscint is added and the samples are counted using window settings for ^14 C in one channel and ^3 H in the second channel. IC50 values are determined by log-probit analysis.

MAO-B = biological target: T2, MAO-B (Rattus norvegicus, UniProt P19643); experiment: biochemical; set-up: species or system rat (male Wistar, whole brain minus cerebellum); conditions: substrate [14C]-PEA 200 μM; read-out: Inhibitory Concentration - IC50 MAO-B
T2 sequence (P19643 1-520): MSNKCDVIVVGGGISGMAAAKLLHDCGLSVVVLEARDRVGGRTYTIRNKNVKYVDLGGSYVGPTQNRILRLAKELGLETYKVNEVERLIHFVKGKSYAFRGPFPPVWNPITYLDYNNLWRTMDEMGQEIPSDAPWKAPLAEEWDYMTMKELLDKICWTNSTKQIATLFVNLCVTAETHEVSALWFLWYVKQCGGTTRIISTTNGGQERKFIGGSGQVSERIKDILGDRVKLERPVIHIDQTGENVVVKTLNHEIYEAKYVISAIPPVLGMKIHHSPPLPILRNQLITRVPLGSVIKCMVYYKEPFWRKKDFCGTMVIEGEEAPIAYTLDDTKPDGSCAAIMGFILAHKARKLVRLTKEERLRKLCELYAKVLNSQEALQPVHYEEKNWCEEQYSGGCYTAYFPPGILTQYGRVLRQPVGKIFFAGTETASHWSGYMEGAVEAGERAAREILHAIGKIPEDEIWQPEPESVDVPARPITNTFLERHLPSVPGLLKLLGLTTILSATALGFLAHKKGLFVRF
Description: as §5
a. β-phenethylamine (PEA) is obtained from Sigma Chemical Company. A 5 mM stock solution is made up in 0.01 N HCl. This is used to dilute the specific activity of the [^14 C]-PEA.
b. β-[ethyl-1-^14 C]-phenethylamine hydrochloride (40-50 mCi/mmol) is obtained from New England Nuclear.
Add 12 μl of [^14 C]-PEA to 2 ml of the 5 mM PEA solution. (Final amine concentration in the assay is 200 μM: see below.)
as §6, §7, §8

Row | IC50 (MAO-A) | IC50 (MAO-B) | Structure (SMILES) | IC50 [2] | IC50 [4] | also measured
1 | – | – | Clc1ccc2c(Nc3ccncc3)c[nH]c2c1 [6-Chloro-3-(4-pyridinylamino)-1H-indole, 6-Chloro-3(4-pyridinylamino)indole] | – | – | % of Animals with Scopolamine Induced Memory Deficit Reversal ([1]; 1 mg/kg of body weight): 27%; % of Animals with Scopolamine Induced Memory Deficit Reversal ([1]; 3 mg/kg of body weight): 20%; % of Animals with Scopolamine Induced Memory Deficit Reversal ([1]; 10 mg/kg of body weight): 27%
2 | – | – | Nc1c2c(nc3ccccc13)CCCC2 [Tacrine, reference compound] | – | – | % of Animals with Scopolamine Induced Memory Deficit Reversal ([1]; 0.63 mg/kg of body weight): 13%
3 | – | – | CCCN(c1ccncc1)c1cc2ccccc2s1 [2-(Propyl-4-pyridinylamino)benzo[b]thiophene hydrochloride] | 55 nM | 91 nM | IC50 [3]: 0.24 µM
4 | 3.2 µM | 17 µM | COc1ccc2c(Nc3ccncc3)csc2c1 [6-Methoxy-3(4-pyridinylamino)benzo[b]thiophene hydrochloride] | – | – | –
5 | – | – | C=CCN(c1ccncc1)c1csc2cc(Cl)ccc12 [6-Chloro-3-[(2-propenyl)(4-pyridinyl)amino]benzo[b]thiophen hydrochloride] | 7 nM | – | IC50 [3]: 0.12 µM
6 | – | – | O=C1CC2(CCCC2)CC(=O)N1CCCCN1CCN(c2ncccn2)CC1 [Buspirone] | – | > 20000 nM | –
7 | 60 µM | 165 µM | FC(F)(F)c1ccc2c(Nc3ccncc3)csc2c1 [3-(4-Pyridinylamino)-6-trifluoromethylbenzo[b]thiophene hydrochloride] | – | – | –
8 | – | – | CC[C@@H]1C(=O)OC[C@@H]1Cc1cncn1C [Pilocarpine, reference compound] | – | – | % of Animals with Scopolamine Induced Memory Deficit Reversal ([1]; 5.0 mg/kg of body weight): 13%
9 | 0.64 µM | 3.9 µM | c1ccc2c(Nc3ccncc3)noc2c1 [3-[(4-pyridinyl)amino]-1,2-benzisoxazole] | – | – | –
10 | – | – | Cn1cc(Nc2ccncc2)c2ccccc21.O=C(O)/C=C/C(=O)O [1-Methyl-3-(4-pyridinylamino)indole fumarate] | – | – | % of Animals with Scopolamine Induced Memory Deficit Reversal ([1]; 1 mg/kg of body weight): 33%; % of Animals with Scopolamine Induced Memory Deficit Reversal ([1]; 3 mg/kg of body weight): 29%; % of Animals with Scopolamine Induced Memory Deficit Reversal ([1]; 10 mg/kg of body weight): 27%
11 | 2.8 µM | 51 µM | Clc1ccc2c(Nc3ccncc3)noc2c1 [6-Chloro-3-[(4-pyridinyl)amino]-1,2-benzisoxazole maleate] | – | – | –
12 | – | – | CN1CCN(C2=Nc3cc(Cl)ccc3Nc3ccccc32)CC1 [Clozapine, reference compound] | > 20000 nM | > 20000 nM | –
13 | – | – | CN(c1ccncc1)c1cc2ccccc2s1 [2-(Methyl-4-pyridinylamino)benzo[b]thiophene hydrochloride] | 78 nM | 510 nM | IC50 [3]: 1.15 µM
14 | – | – | CN(C)CCCN1c2ccccc2CCc2ccc(Cl)cc21 [Chloripramine, reference compound] | 18600 nM | > 20000 nM | –
15 | – | – | Clc1ccc2c(N(CC3CC3)c3ccncc3)csc2c1 [6-Chloro-3-[(cyclopropylmethyl)(4-pyridyl)amino]benzo[b]thiophen hydrochloride] | 12 nM | – | IC50 [3]: 0.12 µM
16 | 182 µM | 205 µM | CCCN(c1ccncc1)c1csc2cc(OC)ccc12 [6-Methoxy-3-(propyl-4-pyridinylamino)benzo[b]thiophene hydrochloride] | – | – | –
17 | 5.3 µM | 18 µM | c1ccc2c(Nc3ccncc3)csc2c1 [3-(4-Pyridinylamino)benzo[b]thiophene hydrochloride] | – | – | –
18 | – | – | O=C(O)/C=C\C(=O)O.c1ccc2c(Nc3ccncc3)c[nH]c2c1 [3-(4-pyridinylamino)-1H-indole maleate, 3-(4-Pyridinylamino)-1H-indole maleate] | – | – | % of Animals with Scopolamine Induced Memory Deficit Reversal ([1]; 10 mg/kg of body weight): 70%
19 | 10.5 µM | 51 µM | Clc1ccc2c(Nc3ccncc3)csc2c1 [6-Chloro-3-(4-pyridinylamino)benzo[b]thiophene hydrochloride] | – | – | –
20 | – | – | CN(C)CCC=C1c2ccccc2CCc2ccccc21 [Amitriptyline, reference compound] | 7700 nM | > 20000 nM | –
